Usually IC50 stands for the concentration at which inhibition is half-maximal.

Structures are written as SMILES. Where only a bound is given, the exact number is not on record here.

The experiment has as its target T1, SARM1 (50-724) (Homo sapiens, UniProt Q6SZW1).
T1 sequence (Q6SZW1 50-724): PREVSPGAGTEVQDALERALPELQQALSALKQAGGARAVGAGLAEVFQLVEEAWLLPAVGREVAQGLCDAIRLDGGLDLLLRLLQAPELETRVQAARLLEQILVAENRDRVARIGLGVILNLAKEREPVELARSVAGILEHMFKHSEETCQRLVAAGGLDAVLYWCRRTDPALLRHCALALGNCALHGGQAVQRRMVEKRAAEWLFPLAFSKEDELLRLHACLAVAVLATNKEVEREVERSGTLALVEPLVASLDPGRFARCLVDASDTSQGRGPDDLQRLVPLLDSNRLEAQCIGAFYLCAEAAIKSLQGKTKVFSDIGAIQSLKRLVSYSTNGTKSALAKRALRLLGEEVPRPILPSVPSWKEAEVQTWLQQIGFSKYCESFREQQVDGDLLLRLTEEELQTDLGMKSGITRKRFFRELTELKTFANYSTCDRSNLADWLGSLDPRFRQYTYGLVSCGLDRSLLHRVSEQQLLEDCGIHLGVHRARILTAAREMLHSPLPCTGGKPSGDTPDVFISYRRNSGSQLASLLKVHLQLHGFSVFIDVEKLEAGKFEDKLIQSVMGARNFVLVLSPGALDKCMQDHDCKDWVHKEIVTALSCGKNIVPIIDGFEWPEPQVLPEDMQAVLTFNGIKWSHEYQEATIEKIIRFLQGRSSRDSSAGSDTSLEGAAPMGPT
Description: biochemical.
Description: An enzymatic assay was performed in a 384-well plate using Dulbecco's phosphate-buffered saline (PBS) as the reaction buffer. […] The reaction was initiated by adding a mixture of 200 μM nicotinamide mononucleotide (NMN) as activator and 100 μM NAD^+ as substrate. After 1 h of incubation at room temperature, the reaction was terminated with 10 times volume of 70% acetonitrile, then centrifuged at 3800 rpm for 10 min.
Take `CC(Nc1cc(F)c2ncn(-c3cnn[nH]3)c(=O)c2c1)c1nc(Cl)c(Cl)s1` (racemic) [Example 372, 6-((1-(4,5-dichlorothiazol-2-yl)ethyl)amino)-8-fluoro-3-(1H-1,2,3-triazol-5-yl)quinazolin-4(3H)-one]: the IC50 is below 0.1 µM. As for `CC(Nc1cc(F)c2ncn(-c3ncnn3C)c(=O)c2c1)c1nc(Cl)c(Cl)s1` (racemic) [Example 373, 6-((1-(4,5-dichlorothiazol-2-yl)ethyl)amino)-8-fluoro-3-(1-methyl-1H-1,2,4-triazol-5-yl)quinazolin-4(3H)-one], the figure is below 0.1 µM; as for `CC(Nc1cc(F)c2ncn(-c3ncc[nH]3)c(=O)c2c1)c1nc(Cl)c(Cl)s1` (racemic) [Example 375, 6-((1-(4,5-dichlorothiazol-2-yl)ethyl)amino)-8-fluoro-3-(1H-imidazol-2-yl)quinazolin-4(3H)-one], below 0.1 µM; as for `Cc1c(Cl)c(C(C)Nc2ccc3cc[nH]c(=O)c3c2)nn1C` (single isomer, unassigned) [Compound 226A], above 1 µM. For `Cc1c(Cl)c(C(C)Nc2ccc3cc[nH]c(=O)c3c2)nn1C` (single isomer, unassigned) [Compound 226B] the value was below 0.1 µM; for `C[C@H](Nc1ccc2c(c1)NC(=O)C2(C)C)c1nc(Cl)c(Cl)s1` (single isomer, unassigned) [Compound 234A], above 1 µM; for `C[C@@H](Nc1ccc2c(c1)NC(=O)C2(C)C)c1nc(Cl)c(Cl)s1` (single isomer, unassigned) [Compound 234], below 0.1 µM. Consider `CCC(C(N)=O)c1ccc(NS(=O)(=O)c2cccc(Cl)c2Cl)cc1` (single isomer, unassigned) [Compound 270A], for which the IC50 was in the range of 0.1 to 0.5 µM. For `CCC(C(N)=O)c1ccc(NS(=O)(=O)c2cccc(Cl)c2Cl)cc1` (single isomer, unassigned) [Compound 270] the value was below 0.1 µM; for `CC[C@H](C(N)=O)c1ccc(N[C@H](C)c2nc(Cl)c(Cl)s2)cc1` (single isomer, unassigned) [Compound 302A], above 1 µM; for `CC[C@@H](C(N)=O)c1ccc(N[C@H](C)c2nc(Cl)c(Cl)s2)cc1` (single isomer, unassigned) [Compound 302B], above 1 µM. As for `CC[C@@H](C(N)=O)c1ccc(N[C@@H](C)c2nc(Cl)c(Cl)s2)cc1` (single isomer, unassigned) [Compound 302C], the figure is 0.1 to 0.5 µM; as for `CC[C@H](C(N)=O)c1ccc(N[C@@H](C)c2nc(Cl)c(Cl)s2)cc1` (single isomer, unassigned) [Compound 302], below 0.1 µM; as for `O=C1NC(CO)CCc2ccc(NS(=O)(=O)c3cccc(Cl)c3Cl)cc21` (single isomer, unassigned) [Compound 304B], 0.5 to 1 µM. For `O=C1NC(CO)CCc2ccc(NS(=O)(=O)c3cccc(Cl)c3Cl)cc21` (single isomer, unassigned) [Compound 304] the value was below 0.1 µM. As to `Cc1c2ccc(NC(C)c3nc(Cl)c(Cl)s3)cc2nn1CC(N)=O` (single isomer, unassigned) [Compound 312B], the IC50 was above 1 µM. For `Cc1c2ccc(NC(C)c3nc(Cl)c(Cl)s3)cc2nn1CC(N)=O` (single isomer, unassigned) [Compound 312] the value was below 0.1 µM; for `CC(Nc1ccc2c(c1)C(=O)N(CC(N)=O)C2(C)C)c1nc(Cl)c(Cl)s1` (single isomer, unassigned) [Compound 320A], above 1 µM.

Consider `CC(Nc1ccc2c(c1)C(=O)N(CC(N)=O)C2(C)C)c1nc(Cl)c(Cl)s1` (single isomer, unassigned) [Compound 320], for which the IC50 is below 0.1 µM. As for `CC(Nc1cc(F)c2ncn(CC(N)=O)c(=O)c2c1)c1nc(Cl)c(Cl)s1` (single isomer, unassigned) [Compound 323A], the figure is above 1 µM.

Take `CC(Nc1cc(F)c2ncn(CC(N)=O)c(=O)c2c1)c1nc(Cl)c(Cl)s1` (single isomer, unassigned) [Compound 323]: the IC50 was below 0.1 µM.

Consider `Cc1c2ccc(NC(C)c3snc(Cl)c3Cl)cc2nn1CC(N)=O` (single isomer, unassigned) [Compound 341A], for which the IC50 is below 0.1 µM. For `Cc1c2ccc(NC(C)c3snc(Cl)c3Cl)cc2nn1CC(N)=O` (single isomer, unassigned) [Compound 341B] the value was above 1 µM; for `Cc1c2ccc(NC(C)c3sc(Cl)nc3Cl)cc2nn1CC(N)=O` (single isomer, unassigned) [Compound 347A], above 1 µM.

As for `Cc1c2ccc(NC(C)c3sc(Cl)nc3Cl)cc2nn1CC(N)=O` (single isomer, unassigned) [Compound 347], the half-maximal inhibitory concentration (IC50) is below 0.1 µM. For `CC(Nc1ccc2c(C(F)F)n(CC(N)=O)nc2c1)c1nc(Cl)c(Cl)s1` (single isomer, unassigned) [Compound 355A] the value was below 0.1 µM; for `CC(Nc1ccc2c(C(F)F)n(CC(N)=O)nc2c1)c1nc(Cl)c(Cl)s1` (single isomer, unassigned) [Compound 355B], above 1 µM; for `Cc1nn(CC(N)=O)c(=O)c2cc(NC(C)c3nc(Cl)c(Cl)s3)ccc12` (single isomer, unassigned) [Compound 357], below 0.1 µM. For `Cc1nn(CC(N)=O)c(=O)c2cc(NC(C)c3nc(Cl)c(Cl)s3)ccc12` (single isomer, unassigned) [Compound 358] the value was above 1 µM; for `Cc1nc(C(C)Nc2ccc3c(C)n(CC(N)=O)nc3c2)sc1Cl` (single isomer, unassigned) [Compound 362], below 0.1 µM. For `Cc1nc(C(C)Nc2ccc3c(C)n(CC(N)=O)nc3c2)sc1Cl` (single isomer, unassigned) [Compound 363] the value was above 1 µM.

The compound `CC(Nc1ccc2c(C(F)(F)F)n(CC(N)=O)nc2c1)c1nc(Cl)c(Cl)s1` (single isomer, unassigned) [Compound 367] had an IC50 below 0.1 µM. `CC(Nc1ccc2c(C(F)(F)F)n(CC(N)=O)nc2c1)c1nc(Cl)c(Cl)s1` (single isomer, unassigned) [Compound 368] returned a half-inhibitory concentration (IC50) above 1 µM. Compound `[2H]C(C)(Nc1ccc2c(C)n(CC(N)=O)nc2c1)c1nc(Cl)c(Cl)s1` (single isomer, unassigned) [Compound 377] gave an IC50 below 0.1 µM. For `[2H]C(C)(Nc1ccc2c(C)n(CC(N)=O)nc2c1)c1nc(Cl)c(Cl)s1` (single isomer, unassigned) [Compound 378] the value was above 1 µM; for `Cc1sc(C(C)Nc2ccc3c(C)n(CC(N)=O)nc3c2)nc1Cl` (single isomer, unassigned) [Compound 380], below 0.1 µM.

`Cc1sc(C(C)Nc2ccc3c(C)n(CC(N)=O)nc3c2)nc1Cl` (single isomer, unassigned) [Compound 381] registered an IC50 above 1 µM.

In the case of `CC(Nc1ccc2nc[nH]c(=O)c2n1)c1c(Cl)ccc(F)c1Cl` (single isomer, unassigned) [Compound 382], the half-inhibitory concentration (IC50) is below 0.1 µM. Take `CC(Nc1ccc2nc[nH]c(=O)c2n1)c1c(Cl)ccc(F)c1Cl` (single isomer, unassigned) [Compound 383]: the IC50 is above 1 µM. For `CC(Nc1ccc2nc[nH]c(=O)c2n1)c1ccc(F)c(Cl)c1Cl` (single isomer, unassigned) [Compound 385] the value was above 1 µM; for `CC(Nc1ccc2nc[nH]c(=O)c2n1)c1ccc(F)c(Cl)c1Cl` (single isomer, unassigned) [Compound 386], below 0.1 µM.

In the case of `CC(Nc1ccc2nc[nH]c(=O)c2n1)c1c(F)ccc(Cl)c1Cl` (single isomer, unassigned) [Compound 387], the IC50 was below 0.1 µM.

In the case of `CC(Nc1ccc2nc[nH]c(=O)c2n1)c1c(F)ccc(Cl)c1Cl` (single isomer, unassigned) [Compound 388], the IC50 is above 1 µM. As for `Cc1c2c(F)cc(NC(C)c3nc(Cl)c(Cl)s3)cc2nn1CC(N)=O` (single isomer, unassigned) [Compound 390], the figure is above 1 µM; as for `Cc1c2c(F)cc(NC(C)c3nc(Cl)c(Cl)s3)cc2nn1CC(N)=O` (single isomer, unassigned) [Compound 391], below 0.1 µM. As for `COc1nccc(C(C)Nc2ccc3c(c2)C(=O)NCC3)c1Cl` (single isomer, unassigned) [Example 95], the figure is 0.5 to 1 µM. As for `CC(Nc1ccc2c(c1)C(=O)NCC2)c1cccc(Cl)c1Cl` (single isomer, unassigned) [Example 111], the figure is below 0.1 µM; as for `CC(Nc1ccc2nc[nH]c(=O)c2c1)c1cccc(Cl)c1Cl` (single isomer, unassigned) [Example 152A], 0.5 to 1 µM; as for `CC(Nc1ccc2nc[nH]c(=O)c2c1)c1cccc(Cl)c1Cl` (single isomer, unassigned) [Example 152], below 0.1 µM.

For `C[C@@H](Nc1ccc2cc[nH]c(=O)c2c1)c1nccc(Cl)c1Cl` (single isomer, unassigned) [Example 194A, (S or R)-7-((1-(3,4-dichloropyridin-2-yl)ethyl)amino)isoquinolin-1(2H)-one], the IC50 was below 0.1 µM. As for `CC(Nc1ccc2cc[nH]c(=O)c2c1)c1nccc(Cl)c1Cl` (single isomer, unassigned) [Example 194B], the figure is above 1 µM.

The record behind these values is patent US20250320184A1 (SIRONAX LTD., priority 2022, published 2025).
